In patent US12692261B2, “Substituted heterocyclic compounds and therapeutic uses thereof” (Bayer Aktiengesellschaft, priority 2020, dated 2026):
Like-named read-outs stand apart in the source and are kept apart here.

Tests used:
Format in all cases: biochemical
[1] = biological target: T1, wild-type Epidermal Growth Factor Receptor (EGFR) (Homo sapiens, UniProt P00533); assay: WT-EGFR Kinase Assay (TR-FRET, 2 mM ATP)
T1 construct: a fragment of human EGFR (amino acids R669 to A1210); made in house; host or cells: Sf9 insect cells
Excerpt: Inhibitory activity of compounds of the present invention against wild-type Epidermal Growth Factor Receptor (EGFR) was quantified employing the TR-FRET based EGFR assay as described in the following paragraphs.
Recombinant fusion protein of N-terminal Glutathion-S-Transferase (GST) and a fragment of human EGFR (amino acids R669 to A1210), expressed in Sf9 insect cells and purified via affinity chromatography using Glutathion Sepharose as described above, was used as kinase. As substrate for the kinase reaction the biotinylated peptide biotin-Ahx-[…] (C-terminus in amide form) was used which can be purchased e.g. form the company Biosynthan GmbH (Berlin-Buch, Germany).
For the assay 50 nl of a 100 fold concentrated solution of the test compound in DMSO was pipetted into either a black low volume 384 well microtiter plate or a black 1536 well microtiter plate (both Greiner Bio-One, Frickenhausen, Germany), 2 μL of a solution of EGFR in aqueous assay buffer [50 mM Hepes pH 7.0, 10 mM MgCl2, 1 mM dithiothreitol, 0.5 mM EGTA, 0.3 mM activated sodium ortho-vanadate, 0.005% (w/v) bovine serum albumin, 0.005% (v/v) Tween-20] were added and the mixture was incubated for 15 min at 22° C. to allow pre-binding of the test compounds to the enzyme before the start of the kinase reaction. […] The concentration of EGFR was adjusted depending of the activity of the enzyme lot and was chosen appropriate to have the assay in the linear range, typical concentration was 7.6 pg/μL. The reaction was stopped by the addition of 3 μL of a solution of HTRF detection reagents (83.3 nM streptavidine-XL665 [Cisbio Bioassays, Codolet, France] and 1.67 nM PT66-Tb-Cryptate, a terbium-cryptate labelled anti-phospho-tyrosine antibody from Cisbio Bioassays [instead of the PT66-Tb-cryptate PT66-Eu-Chelate from Perkin Elmer can also be used]) in an aqueous EDTA-solution (133.3 mM EDTA, 0.2% (w/v) bovine serum albumin in 50 mM HEPES pH 7.5).
The resulting mixture was incubated 1 h at 22° C. to allow the binding of the biotinylated phosphorylated peptide to the streptavidine-XL665 and the PT66-Tb-Cryptate. Subsequently the amount of phosphorylated substrate was evaluated by measurement of the resonance energy transfer from the PT66-Tb-Cryptate to the streptavidine-XL665. Therefore, the fluorescence emissions at 620 nm and 665 nm after excitation at 337 nm were measured in a HTRF reader, e.g. a Pherastar (BMG Labtechnologies, Offenburg, Germany) or a Viewlux (Perkin-Elmer). The ratio of the emissions at 665 nm and at 622 nm was taken as the measure for the amount of phosphorylated substrate.

[2] = biological target: T2, full-length human CSNK1A1 (Homo sapiens, UniProt P48729); assay: CSNK1A1 Assay 2 (ADP-Glo, 1 μM ATP, substrate biotin-Ahx-KRRRAL-pS-VASLPGL); details: Table 3, read-out: CSNK1A1 Assay 2 IC50 [mol/l] (median)
T2 construct: N-terminal Glutathion-S-Transferase (GST) and full-length human CSNK1A1; purchased Life Technologies PV4174; host or cells: baculovirus infected insect cells
Procedure: CSNK1A1-inhibitory activity of compounds of the present invention in presence of 1 μM adenosine-tri-phosphate (ATP) was quantified employing the CSNK1A1 assay as described in the following paragraphs. In essence, the enzyme activity is measured by quantification of the adenosine-di-phosphate (ADP), which is generated as a co-product of the enzyme reaction, via the “ADP-Glo™ Kinase Assay” kit from the company Promega. This detection system works as follows: In a first step the ATP not consumed in the kinase reaction is quantitatively converted to cAMP employing an adenylate cyclase (“ADP-Glo-reagent”), then the adenylate cyclase is stopped and the ADP generated in the kinase reaction converted to ATP which generates in a luciferase-based reaction a glow-luminescence signal (“Kinase Detection Reagent”).
(§1) Recombinant fusion protein of N-terminal Glutathion-S-Transferase (GST) and full-length human CSNK1A1, expressed by baculovirus infected insect cells and purified via Glutathion affinity chromatography, was purchased from Life Technologies (product no. PV4174) and used as enzyme. As substrate for the kinase reaction the biotinylated peptide biotin-Ahx-KRRRAL-pS-VASLPGL (C-terminus in amide form) was used which can be purchased e.g. from the company Biosyntan (Berlin-Buch, Germany).
For the assay 50 nl of a 100 fold concentrated solution of the test compound in DMSO was pipetted into a white 1536-well microtiter plate (Greiner Bio-One, Frickenhausen, Germany), 2 μL of a solution of CSNK1A1 in aqueous assay buffer [50 mM HEPES pH 7.5, 10% (v/v) glycerol, 10 mM MgCl2, 50 mM NaCl, 1 mM dithiothreitol, 0.01% (w/v) bovine serum albumin, 0.01% (v/v) Triton X-100] were added and the mixture was incubated for 15 min at 22° C. to allow pre-binding of the test compounds to the enzyme before the start of the kinase reaction. […] The concentration of CSNK1A1 was adjusted depending of the activity of the enzyme lot and was chosen appropriate to have the assay in the linear range, a typical concentrations are about 0.0375 ng/μL. The reaction was stopped by the addition of 2.5 μL of “ADP-Glo-reagent” (1:1.5 fold diluted with water) and the resulting mixture was incubated at 22° C. for 1 h to convert the ATP not consumed in the kinase reaction completely […]. Subsequently 2.5 μL of the “kinase detection reagent” (1.2 fold more concentrated than recommended by the producer) were added, the resulting mixture was incubated at 22° C. for 1 h and then the luminescence measured with a suitable measurement instrument (e.g. Viewlux™ from Perkin-Elmer). The amount of emitted light was taken as a measure for the amount of ADP generated and thereby for the activity of the CSNK1A1.

[3] = biological target: T2, full-length human CSNK1A1; assay: CSNK1A1 High ATP Assay (ADP-Glo, 1 mM ATP); details: Table 3, read-out: CSNK1A1 high ATP assay IC50 [mol/l] (median);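 also: 30 min kinase reaction at 22 °C with 100 µM peptide substrate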
Procedure: CSNK1A1-inhibitory activity of compounds of the present invention in presence of 1 mM adenosine-tri-phosphate (ATP) was quantified employing the CSNK1A1-high-ATP-assay as described in the following paragraphs. In essence, the enzyme activity is measured by quantification of the adenosine-di-phosphate (ADP), which is generated as a co-product of the enzyme reaction, via the “ADP-Glo™ Kinase Assay” kit from the company Promega. This detection system works as follows: In a first step the ATP not consumed in the kinase reaction is quantitatively converted to cAMP employing an adenylate cyclase (“ADP-Glo-reagent”), then the adenylate cyclase is stopped and the ADP generated in the kinase reaction converted to ATP which generates in a luciferase-based reaction a glow-luminescence signal (“Kinase Detection Reagent”).
as §1
For the assay 50 nl of a 100 fold concentrated solution of the test compound in DMSO was pipetted into a white low volume 384-well microtiter plate (Greiner Bio-One, Frickenhausen, Germany), 2 μL of a solution of CSNK1A1 in aqueous assay buffer [50 mM HEPES pH 7.5, 10% (v/v) glycerol, 10 mM MgCl2, 50 mM NaCl, 1 mM dithiothreitol, 0.01% (w/v) bovine serum albumin, 0.01% (v/v) Triton X-100] were added and the mixture was incubated for 15 min at 22° C. to allow pre-binding of the test compounds to the enzyme before the start of the kinase reaction. […] The concentration of CSNK1A1 was adjusted depending of the activity of the enzyme lot and was chosen appropriate to have the assay in the linear range, a typical concentration is about 0.4 ng/μL. The reaction was stopped by the addition of 2.5 μL of “ADP-Glo-reagent” (1:1.5 fold diluted with water) and the resulting mixture was incubated at 22° C. for 1 h to convert the ATP not consumed in the kinase reaction completely […]. Subsequently 2.5 μL of the “kinase detection reagent” (1.2 fold more concentrated than recommended by the producer) were added, the resulting mixture was incubated at 22° C. for 1 h and then the luminescence measured with a suitable measurement instrument (e.g. Viewlux™ from Perkin-Elmer). The amount of emitted light was taken as a measure for the amount of ADP generated and thereby for the activity of the CSNK1A1.

[4] = EGFR Wildtyp 2 mM ATP IC50 [mol/l] (median), Table 4

T2 sequence (P48729 whole entry): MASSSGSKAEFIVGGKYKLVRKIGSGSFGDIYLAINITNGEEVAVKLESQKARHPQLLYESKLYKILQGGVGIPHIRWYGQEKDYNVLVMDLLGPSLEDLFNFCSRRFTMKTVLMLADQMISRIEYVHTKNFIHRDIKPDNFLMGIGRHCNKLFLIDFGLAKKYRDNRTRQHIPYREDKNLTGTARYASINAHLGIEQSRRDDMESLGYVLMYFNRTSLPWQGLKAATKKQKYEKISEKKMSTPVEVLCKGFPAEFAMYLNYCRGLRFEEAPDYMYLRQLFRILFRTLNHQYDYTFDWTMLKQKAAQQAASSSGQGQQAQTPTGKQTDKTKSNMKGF
T1 sequence (P00533 669-1210): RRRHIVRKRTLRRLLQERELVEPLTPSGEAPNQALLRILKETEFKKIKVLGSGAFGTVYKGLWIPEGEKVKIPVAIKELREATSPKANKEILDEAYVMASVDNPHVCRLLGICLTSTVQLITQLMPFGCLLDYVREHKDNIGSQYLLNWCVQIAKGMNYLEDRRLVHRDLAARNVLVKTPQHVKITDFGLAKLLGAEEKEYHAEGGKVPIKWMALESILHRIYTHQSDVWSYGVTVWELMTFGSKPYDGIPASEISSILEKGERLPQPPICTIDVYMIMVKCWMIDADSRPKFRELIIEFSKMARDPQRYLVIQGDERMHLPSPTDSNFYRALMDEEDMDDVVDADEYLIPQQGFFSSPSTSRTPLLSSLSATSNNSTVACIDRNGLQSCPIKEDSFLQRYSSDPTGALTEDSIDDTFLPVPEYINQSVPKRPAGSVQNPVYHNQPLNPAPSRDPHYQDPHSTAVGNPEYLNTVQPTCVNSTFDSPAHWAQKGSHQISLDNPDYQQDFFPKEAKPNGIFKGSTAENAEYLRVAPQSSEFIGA

With `O=C(Nc1cc(-c2[nH]c3c(OCC(F)F)ccnc3c2-c2ccccn2)ccn1)C(CC(F)F)c1ccc(F)cc1` (racemic) [Example 75, (2RS)—N-{4-[7-(2,2-difluoroethoxy)-3-(pyridin-2-yl)-1H-pyrrolo[3,2-b]pyridin-2-yl]pyridin-2-yl}-4,4-difluoro-2-(4-fluorophenyl)butanamide] the IC50 [1, 4] was over 20 µM, the IC50 [2] was 4.37 nM and the IC50 [3] was 4.37 nM.
`O=C(Nc1cc(-c2[nH]c3c(OCC(F)F)ccnc3c2-c2ccccn2)ccn1)C(CC(F)F)c1ccc(F)cc1` (single isomer, unassigned) [Example 76, (2R or S)—N-{4-[7-(2,2-difluoroethoxy)-3-(pyridin-2-yl)-1H-pyrrolo[3,2-b]pyridin-2-yl]pyridin-2-yl}-4,4-difluoro-2-(4-fluorophenyl)butanamide] gave an IC50 [1, 4] of over 20 µM, an IC50 [2] of 2.94 nM and an IC50 [3] of 2.94 nM.
In the case of `O=C(Nc1cc(-c2[nH]c3c(OCC(F)F)ccnc3c2-c2ccccn2)ccn1)C(CC(F)F)c1ccc(F)cc1` (single isomer, unassigned) [Example 77, (2R or S)—N-{4-[7-(2,2-difluoroethoxy)-3-(pyridin-2-yl)-1H-pyrrolo[3,2-b]pyridin-2-yl]pyridin-2-yl}-4,4-difluoro-2-(4-fluorophenyl)butanamide], the IC50 ([1]; read-out: EGFR Wildtyp 2 mM ATP IC50 [mol/l] (median), Table 4) is reported as over 20 µM, the IC50 [2] is reported as 7.2 nM and the IC50 [3] is reported as 7.2 nM.
